Assay results reported in ChEMBL document CHEMBL2429773, “Synthesis and antiseizure evaluation of isoindoline-1,3-dione derivatives in mice” (Med Chem Res, 2013).

Experiments:
[1] = test system: Mus musculus; experiment: Anticonvulsant activity against subcutaneous pentylenetetrazole-induced seizures in albino mouse assessed as onset of seizure time at 100 mg/kg, ip after 0.5 hr; type: functional; settings: route intraperitoneal
[2] = test system: Mus musculus; experiment: Anticonvulsant activity in albino mouse assessed as protection against subcutaneous pentylenetetrazole-induced death measured as mortality at 100 mg/kg, ip after 0.5 hr; type: functional; settings: sc, route intraperitoneal
[3] = test system: Mus musculus; experiment: Anticonvulsant activity in albino mouse assessed as protection against subcutaneous pentylenetetrazole-induced death measured as mortality at 30 mg/kg, ip after 0.5 hr; type: functional; settings: sc
[4] = test system: Mus musculus; experiment: Anticonvulsant activity against subcutaneous pentylenetetrazole-induced seizures in albino mouse assessed as onset of seizure time at 300 mg/kg, ip after 0.5 hr; type: functional; settings: route intraperitoneal
[5] = test system: Mus musculus; experiment: Anticonvulsant activity in albino mouse assessed as protection against subcutaneous pentylenetetrazole-induced death measured as mortality at 300 mg/kg, ip after 0.5 hr; type: functional; settings: sc, route intraperitoneal
[6] = test system: Mus musculus; experiment: Anticonvulsant activity against subcutaneous pentylenetetrazole-induced seizures in albino mouse assessed as duration of seizure time at 300 mg/kg, ip after 0.5 hr; type: functional; settings: route intraperitoneal
[7] = test system: Mus musculus; experiment: Anticonvulsant activity against maximal electroshock-induced seizures in albino mouse assessed as seizure at 30 mg/kg, ip after 0.5 hr; type: functional; settings: route intraperitoneal
[8] = test system: Mus musculus; experiment: Anticonvulsant activity against subcutaneous pentylenetetrazole-induced seizures in albino mouse assessed as duration of seizure time at 100 mg/kg, ip after 0.5 hr; type: functional; settings: route intraperitoneal
[9] = test system: Mus musculus; experiment: Anticonvulsant activity in ip dosed albino mouse assessed as protection against maximal electroshock-induced seizures after 0.5 hr; type: functional
[10] = test system: Mus musculus; experiment: Anticonvulsant activity against subcutaneous pentylenetetrazole-induced seizures in albino mouse assessed as seizure at 100 mg/kg, ip after 0.5 hr; type: functional
[11] = test system: Mus musculus; experiment: Anticonvulsant activity against maximal electroshock-induced seizure in albino mouse assessed as seizures at 300 mg/kg, ip after 0.5 hr; type: functional; settings: route intraperitoneal
[12] = test system: Mus musculus; experiment: Anticonvulsant activity against subcutaneous pentylenetetrazole-induced seizures in albino mouse assessed as duration of seizure time at 30 mg/kg, ip after 0.5 hr; type: functional; settings: route intraperitoneal
[13] = test system: Mus musculus; experiment: Anticonvulsant activity against maximal electroshock-induced seizures in albino mouse assessed as seizure at 100 mg/kg, ip after 0.5 hr; type: functional; settings: route intraperitoneal
[14] = test system: Mus musculus; experiment: Anticonvulsant activity against subcutaneous pentylenetetrazole-induced seizures in albino mouse assessed as onset of seizure time at 30 mg/kg, ip after 0.5 hr; type: functional; settings: route intraperitoneal
[15] = test system: Mus musculus; experiment: Protective index, ratio of TD50 for neurotoxicity in ip dosed albino mouse to ED50 for anticonvulsant activity in ip dosed albino mouse; type: functional
[16] = Neurotoxicity in ip dosed albino mouse measured after 30 mins by rotarod method; type: toxicity, organism-based; settings: in vivo

SMILES | Time [1] [min] | mortality at 100 mg/kg [2] [%] | mortality at 30 mg/kg ([3]; route intraperitoneal) [%] | Time [4] [min] | mortality at 300 mg/kg [5] [%] | Time [6] [min] | Activity [7] [%] | Time [8] [min] | ED50 [9] [mg/kg] | Activity ([10]; route intraperitoneal) [%] | Activity [11] [%] | Time [12] [min] | Activity [13] [%] | Time [14] [min] | Ratio TD50/ED50 [15] | TD50 at 0.5 h [16] [mg/kg] | mortality at 30 mg/kg [3] [%] | Activity ([10]; ROUTE) [%]
COc1cccc(N2C(=O)c3ccccc3C2=O)c1 | 7.25 | 75 | 100 | 10.25 | 25 | 22.25 | 100 | 18.75 | > 300 | 100 | 75 | 7.25 | 100 | 3 | – | – | – | –
O=C1c2ccccc2C(=O)N1c1ccc(Cl)cc1 | 3.25 | 75 | 100 | 8.25 | 75 | 19.25 | 75 | 12.75 | 55 | 100 | 25 | 10.5 | 25 | 3 | >5.54 | > 300 | – | –
O=C1c2ccccc2C(=O)N1c1cccc(Cl)c1 | 3.75 | 75 | 100 | 4.75 | 25 | 9 | 100 | 7 | 190 | 100 | 25 | 11.25 | 100 | 3.5 | 1.57 | 300 | – | –
COc1ccc(N2C(=O)c3ccccc3C2=O)cc1 | 5.25 | 100 | 100 | 13.5 | 0 | 23.75 | 25 | 22.25 | 15.1 | 100 | 0 | 11.75 | 25 | 3 | 5.91 | 89.3 | – | –
O=C1c2ccccc2C(=O)N1c1ccccc1Cl | 6.5 | 75 | 100 | 9.5 | 100 | 24.5 | 100 | 14.25 | 168 | 100 | 25 | 8.25 | 75 | 1.5 | – | – | – | –
O=C1c2ccccc2C(=O)N1c1ccccc1F | 5 | 100 | 100 | 4.75 | 75 | 12 | 100 | 9 | > 300 | 100 | 0 | 5.5 | 75 | 2 | <0.77 | 233 | – | –
O=C1c2ccccc2C(=O)N1c1cccc(F)c1 | 4 | 100 | 100 | 4.75 | 75 | 14 | 100 | 11 | 39.7 | 100 | 25 | 10.5 | 0 | 5 | 0.79 | 31.7 | – | –
O=C1c2ccccc2C(=O)N1c1ccc(F)cc1 | 8.5 | 25 | 25 | 15.25 | 0 | 23.5 | 100 | 23.75 | > 300 | 100 | 75 | 13.25 | 100 | 3 | <0.6 | 182 | – | –
O=C1c2ccccc2C(=O)N1c1cccc([N+](=O)[O-])c1 | 4.5 | 100 | 100 | 10.5 | 75 | 18.25 | 100 | 16.5 | 174 | 100 | 25 | 6 | 75 | 3.5 | 0.42 | 74.2 | – | –
O=C1c2ccccc2C(=O)N1c1ccc([N+](=O)[O-])cc1 | 4 | 75 | 75 | 6.25 | 75 | 15.5 | 100 | 11.75 | 62.3 | 100 | 25 | 5.75 | 25 | 3.5 | 2.81 | 176 | – | –
COc1ccccc1N1C(=O)c2ccccc2C1=O | 5.75 | 100 | 100 | 7.25 | 75 | 13.5 | 100 | 9.75 | 195 | 100 | 25 | 9.75 | 100 | 2.75 | 1.14 | 222 | – | –
O=C1c2ccccc2C(=O)N1c1ccccc1[N+](=O)[O-] | 7.5 | 0 | 100 | 8.75 | 75 | 18 | 75 | 22.5 | 53.5 | 100 | 0 | 7 | 25 | 2 | >5.6 | > 300 | – | –
CN1C(=O)CN=C(c2ccccc2)c2cc(Cl)ccc21 [DIAZEPAM] | – | – | – | – | – | – | – | – | 1.8 | – | – | – | – | – | – | – | 0 | 0
O=C1c2ccccc2C(=O)N1c1ccccc1 [N-PHENYL-PHTHALIMIDE] | 4.5 | 100 | 100 | 6 | 25 | 15.75 | 100 | 11 | 66.2 | 100 | 0 | 3.75 | 25 | 3.25 | >4.53 | > 300 | – | –
